Assay [1] deals with HUVEC. In words: HUVEC growth, cell cycle and Cyclin D1. The class given is cell-based, human. As to the method:
Immunoblotting. For immunoblotting, cells were collected by trypsinization, washed with PBS and lysed in homogenization buffer (0.3 M sucrose, 10 mM Tris (pH 8.0), 400 mM sodium chloride, 3 mM magnesium chloride, 0.5% NP40/IGEPAL, 100 μg/mL Aprotinin+Protease inhibitor cocktail (Roche #11 836 153 001). Proteins were separated by SDS-PAGE, transferred to a membrane (LI-COR), probed with primary antibodies overnight at 4° C., and probed with secondary antibodies (LI-COR) for 1-2 hours at room temperature. Proteins were visualized using the LI-COR Odyssey Infrared Imaging detection system. The following primary antibodies were used Id1, Id2, Id3, Id4 (195-14, 9-2-8, 17-3, 82-12, respectively, all from Biocheck), Cyclin D1 (2978, Cell Signaling), Actin (A2066, Sigma), Tubulin (T4026, Sigma). Western blot quantification was carried out using channel 700 and channel 800 intensity data from Odyssey application software version 3.0.30 (LI-COR), subtracting blank values and normalizing to Tubulin.
Cell viability assays. Cell lines were seeded in a 96 well plate (5000 cells per well). After overnight incubation, cells were treated with AGX51 and incubated for 24 hours then MTT reagent (5 mg/mL) was added per well and the cells were incubated for four hours. Following incubation, media was aspirated and 200 μL DMSO was added per well. Absorbance was then measured at 570 nm using a plate reader (Synergy 2, BioTek). Cell growth profiles were determined by seeding 38,000 cells in a 24-well plate, in triplicate for each time point, and counting the cells on days 1, 3 and 5 after seeding, using trypan blue exclusion of dead cells.
Cell cycle analysis. […] For cell cycle analysis cells were centrifuged 1000 rpm for 5 minutes, washed with 1×PBS and then resuspended in 0.5 mL PI/RNase staining buffer (550825, BD Biosciences), incubated for 15 minutes at room temperature and analyzed by flow cytometry (LSR II).

In assay [2] the test system is MDA-MB-231. Description: MTT assay, MDA-MB-231. The assay is classed as cell-based. Set-up: scale not given here. Particulars: MDA-MB-231, TNBC cell line, 24 hours. An excerpt:
(§1) The 4T1 murine mammary tumor cell line and nine breast cancer cell lines representing the major breast cancer subtypes (ER+, HER2+, and TNBC) including MDA-MB-157, MDA-MB-436, MDA-MB-231, MDA-MB-453, MDA-MB-361, BT-474, SK-BR-3, MCF-7 and T47-D will be grown in RPMI or DMEM (Dulbecco's Modified Eagle Medium) media supplemented with 10% FBS (fetal bovine serum), 1% penicillin-streptomycin and 1% L-Glutamine. Patient derived xenograft cell lines BR7, BR11, and IBT will be established directly from breast cancer bone metastases specimens surgically resected from patients with informed consent. BR7 and BR11 specimens will be obtained from ER positive (HER2 negative and PR negative) metastatic breast cancer patients, while the IBT specimen will be obtained from a metastatic, triple negative breast cancer patient. Fresh tumor tissues will be quickly washed with ice cold PBS and minced into about 1-3 mm pieces in MEM medium (without FBS) using sterile razor blades. […] The cells will be treated with either 100 μM DMSO, AGX51, or a compound of the present technology such as AGX-A. The cell morphology and growth will be monitored daily for 1 week by microscopy for changes in morphology or cell death. […] Absorbance will then measured at 570 nm using a plate reader (Synergy 2, BioTek). […]

For assay [3], the system named is MDA-MB-361. Description: MTT assay, MDA-MB-361. The assay is classed as cell-based. Conditions: MDA-MB-361, HER-2 +ve cell line, 24 hours.
Text: as §1

Assay [4] deals with lung metastases. In words: LLC metastasis model. The class given is in vivo, mouse. Conditions: daily ip. As to the method: Thirty C57BL/6 mice will be implanted with 7.5×10^5 LLC cancer cells/animal. Seven days after implantation, 5M/5F per group will be treated daily ip for 25 days with dosing vehicle (DMSO), AGX51, or a compound of the present technology (such as AGX-A). Fourteen days after implantation, another group of 5M/5F animals will be treated daily ip for 18 days with 50 mg/kg of AGX51 and another group of 5M/5F animals will be treated daily ip for 18 days with a compound of the present technology (such as AGX-A). Tumors will be measured three times from Day 7 to 14. On Day 14, the tumors will be excised. The animals will be necropsied for the presence of lung metastases on day 32, 18 days post excision.

Regarding `CCC(=O)N(CCC(c1ccc2c(c1)OCO2)c1ccccc1OC)Cc1ccccc1` (racemic) [AGX51, N-(3-(benzo[d][1,3]dioxol-5-yl)-3-(2-methoxyphenyl)propyl)-N-benzylpropionamide], the “Cyclin D1 levels” value in assay [1] (0-40 μM, 24 hours) is given as “reduction in Cyclin D1 levels”. Besides, the cell viability result in assay [1] (20 μM) is recorded as “reduced cell viability”. In assay [1] (20 μM, 24 hours), the cell cycle result is given as “G0/G1 growth arrest”. Further, the “percentage at 60 μM (IC50 NA)” value in assay [2] was “NA (60 μM = 70%)”; in assay [3], “NA (60 μM = 53%)”. For the same compound, the lung metastases result in assay [4] is reported as “profoundly diminish lung metastases”.

The record behind these values is patent publication US20220356163A1, “SMALL MOLECULE INHIBITORS OF Id PROTEINS” (MEMORIAL SLOAN KETTERING CANCER CENTER, priority 2019, published 2022).
